Experimental data published in PubChem BioAssay AID248 (DTP/NCI, 2004).
Several values for one entry are separate records, joined by “and”; a condition that tells them apart may be missing. Identical values can stand only once. Inconclusive results and toxic doses are left out. No stated cut-off is given here; in the data, active means T/C of 150% or more; inactive means T/C below 125%.

Test system: L1210 leukemia ip in BDF1 mice, survival T/C
Assay: NCI In Vivo Anticancer Drug Screen. Data for tumor model L1210 Leukemia (intraperitoneal) in B6D2F1 (BDF1) mice
Conditions: endpoint: mean survival time, higher = longer survival
Method in brief: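 Transplantable tumor model; survival measured in treated vs vehicle control mice. Value = treated/control.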

[1] = dose: 100.0 mg/kg/injection, schedule: Q01DX009 (ip), vehicle: saline with Tween-80
[2] = dose: 200.0 mg/kg/injection, schedule: Q01DX009 (ip), vehicle: saline with Tween-80
[3] = dose: 400.0 mg/kg/injection, schedule: Q01DX009 (ip), vehicle: saline with Tween-80
[4] = dose: 100.0 mg/kg/injection, schedule: Q04DX002 (ip), vehicle: Klucel (hydroxypropylcellulose) (HPC)

Measured: T/C

O=C(O)CCN(Cc1ccccc1)Cc1ccccc1
inactive: [1] 101 % of control | dose: 100.0 mg/kg/injection, schedule: Q04DX003 (ip), vehicle: saline with Tween-80 108 % of control | [2] 98 % of control | dose: 200.0 mg/kg/injection, schedule: Q04DX003 (ip), vehicle: saline with Tween-80 88 % of control | [3] 98 % of control | dose: 400.0 mg/kg/injection, schedule: Q04DX003 (ip), vehicle: saline with Tween-80 104 % of control

CCCCCCCCN(c1ccc(C(=O)O)cc1)S(=O)(=O)c1ccc(C)cc1
inactive: dose: 75.0 mg/kg/injection, schedule: Q01DX009 (ip), vehicle: Klucel (hydroxypropylcellulose) (HPC) 103 % of control | dose: 150.0 mg/kg/injection, schedule: Q01DX009 (ip), vehicle: Klucel (hydroxypropylcellulose) (HPC) 100 % of control | dose: 300.0 mg/kg/injection, schedule: Q01DX009 (ip), vehicle: Klucel (hydroxypropylcellulose) (HPC) 90 % of control

OC(Cc1cnc2ccccc2n1)C(Cl)(Cl)Cl (stereo not drawn)
inactive: [1] 102 % of control | dose: 100.0 mg/kg/injection, schedule: Q04DX003 (ip), vehicle: Klucel (hydroxypropylcellulose) (HPC) 90 % of control | [2] 97 % of control | dose: 200.0 mg/kg/injection, schedule: Q04DX003 (ip), vehicle: Klucel (hydroxypropylcellulose) (HPC) 95 % of control | [3] 94 % of control | dose: 400.0 mg/kg/injection, schedule: Q04DX003 (ip), vehicle: Klucel (hydroxypropylcellulose) (HPC) 108 % of control

N#Cc1nc2c(nc1C#N)CCCC2
inactive: dose: 6.25 mg/kg/injection, schedule: Q04DX003 (ip), vehicle: Klucel (hydroxypropylcellulose) (HPC) 98 % of control | dose: 12.5 mg/kg/injection, schedule: Q04DX003 (ip), vehicle: Klucel (hydroxypropylcellulose) (HPC) 95 % of control | dose: 25.0 mg/kg/injection, schedule: Q01DX001 (ip), vehicle: Klucel (hydroxypropylcellulose) (HPC) 96 % of control | dose: 25.0 mg/kg/injection, schedule: Q04DX003 (ip), vehicle: Klucel (hydroxypropylcellulose) (HPC) 97 % of control and 102 % of control | dose: 50.0 mg/kg/injection, schedule: Q01DX001 (ip), vehicle: Klucel (hydroxypropylcellulose) (HPC) 105 % of control | dose: 100.0 mg/kg/injection, schedule: Q01DX001 (ip), vehicle: Klucel (hydroxypropylcellulose) (HPC) 104 % of control

Cc1ccc(NC(=O)Oc2ccc(C(C)(C)C)cc2Br)cc1NC(=O)Oc1ccc(C(C)(C)C)cc1Br
inactive: dose: 100.0 mg/kg/injection, schedule: Q01DX009 (ip), vehicle: other 87 % of control | dose: 200.0 mg/kg/injection, schedule: Q01DX009 (ip), vehicle: other 100 % of control | dose: 400.0 mg/kg/injection, schedule: Q01DX009 (ip), vehicle: other 98 % of control

COC(=O)C1C2CC3c4[nH]c5cc(OC)ccc5c4CCN3CC2CC(O)C1OC (stereo not drawn)
inactive: dose: 50.0 mg/kg/injection, schedule: Q04DX002 (ip), vehicle: Klucel (hydroxypropylcellulose) (HPC) 96 % of control | [4] 90 % of control

c1ccc(C2(N3CCC4(CC3)OCCO4)CCCCC2)cc1
inactive: [4] 102 % of control | dose: 200.0 mg/kg/injection, schedule: Q04DX002 (ip), vehicle: Klucel (hydroxypropylcellulose) (HPC) 105 % of control
